Source: patent publication US20230119759A1, “PHARMACEUTICAL COMBINATION COMPRISING PYRIDINO[1,2-A]PYRIMIDINONE COMPOUND” (CHIA TAI TIANQING PHARMACEUTICAL GROUP CO., LTD., priority 2020, published 2023)

System: BT-474 xenograft tumor
Assay: Human breast cancer (BT-474) xenograft tumor model in nude mice
Type: in vivo, BALB/c female nude mice
Details: for Mean tumor volume (day 28) / T/C / TGI: day 28; for Mean tumor volume (day 0): day 0 (start of treatment, baseline)
Method: BALB/c female nude mice (provided by Shanghai Sippr-BK Lab. Animal Co., Ltd.), SPF-grade, weight 18-25 g, aged about 8 weeks (tumor-bearing). Human breast cancer BT-474 cells (ATCC) were cultured in Hybri-Care medium containing 10% fetal bovine serum, 100 U/mL penicillin and […] in vitro monolayer culture at 37° C./5% CO2. The cells were digested with trypsin-EDTA twice a week for passaging as per conventional practice. When cell confluence was 80%-90%, the cells were collected, counted, and inoculated. Estrogen tablets were implanted 3 days before cell inoculation, 0.2 mL of BT-474 cells (1×10^7) were subcutaneously inoculated on the right back of each mouse, and grouping and administration was initiated when the mean tumor volume reached 127.19 mm^3. The compound of formula I was dissolved in a vehicle: 0.01 mol/L HCl solution, 0.5% methylcellulose and deionized water were mixed well in a volume ratio of 20:30:100.
The tumor volume was calculated using the following formula: V=0.5a×b^2, where a and b represent the long diameter and short diameter of the tumor, respectively. The percentage value of TIC (%) reflects the tumor growth inhibition rate, and where T and C represent the tumor weight (tumor volume) of the treatment groups and the control group, respectively, on a certain day.
The tumor growth inhibition rate was calculated using the following formula: TGI (%)=[1−(Ti−T0)/(Vi−V0)]×100, where Ti is the mean tumor volume of a certain treatment group on a certain day, T0 is the mean tumor volume of the treatment group at the start of treatment, Vi is the mean tumor volume of the vehicle control group on a certain day (same day as Ti) and V0 is the mean tumor volume of the vehicle control group at the start of treatment. Tumor weights were measured at the end of treatment and percentage Tweight/Cweight was calculated, where Tweight and Cweight represent the tumor weights of the treatment and vehicle control groups, respectively.

[1] = 1 mg/kg orally once daily for 28 days
[2] = 2 mg/kg orally once daily for 28 days
[3] = 4 mg/kg orally once daily for 28 days

With `COc1ncc(-c2ccc3ncc(OCCN(C)C)c(=O)n3c2)cc1NS(=O)(=O)c1ccc(F)cc1Cl` [Compound of formula I] the “Mean tumor volume (day 28)” value [1] was 223 ± 50 mm^3, the T/C [1] was 56.09% and the TGI [1] was 64.56%. The “Mean tumor volume (day 0)” value (1 mg/kg orally once daily) was 127 ± 11 mm^3, the “Mean tumor volume (day 28)” value [2] was 159 ± 36 mm^3 and the T/C [2] was 40.11%. For the same compound, the TGI [2] was 88.10%, the “Mean tumor volume (day 0)” value (2 mg/kg orally once daily) was 127 ± 11 mm^3 and the “Mean tumor volume (day 28)” value [3] was 145 ± 40 mm^3. For the same compound, the T/C [3] was 36.52%, the TGI [3] was 93.35% and the “Mean tumor volume (day 0)” value (4 mg/kg orally once daily) was 127 ± 11 mm^3. The “anti-tumor efficacy (in words)” value (BT-474 xenograft tumor model, 1-4 mg/kg orally) was “significant anti-tumor efficacy”.
